The values that follow come from publication PMC12640663 (Chemmedchem, 2025).

Where “and” joins values, the source holds several entries; their conditions need not be identical. Equal values may be shown once. Entries after “also recorded” stand apart in the source; their conditions may differ.

The test system of data set [1] is streptozotocin‐induced diabetic rats. Also on record: method as in PMID 37628991. Conditions: cited from earlier work.
Data set [2] concerns the target T1, hPTP1B1–400 (Homo sapiens, UniProt P18031).
T1 sequence (P18031 1-400): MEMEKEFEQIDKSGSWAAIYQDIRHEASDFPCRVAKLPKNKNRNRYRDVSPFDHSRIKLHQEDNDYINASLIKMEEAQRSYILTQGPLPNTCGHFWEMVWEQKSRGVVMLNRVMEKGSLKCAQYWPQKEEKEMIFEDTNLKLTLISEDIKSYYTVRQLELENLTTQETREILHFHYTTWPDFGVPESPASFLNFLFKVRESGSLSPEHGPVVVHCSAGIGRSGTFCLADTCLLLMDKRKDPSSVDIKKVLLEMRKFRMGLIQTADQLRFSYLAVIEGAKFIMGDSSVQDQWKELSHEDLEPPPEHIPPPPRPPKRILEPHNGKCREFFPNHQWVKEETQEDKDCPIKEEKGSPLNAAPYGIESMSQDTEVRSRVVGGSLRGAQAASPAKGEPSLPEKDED
Put plainly: PTP1B activity assay, long form hPTP1B1–400 (p‐NPP). The data set is classed as biochemical. Also noted: hPTP1B1–400 (the long form with an intrinsically disordered C‐terminal regulatory domain). The following applies: for IC50: ± S.D, p‐NPP substrate, 15 min at 37 °C, triplicate. As for the experimental part: (§1) The inhibitory activity of PTP1B was assessed using two enzyme variants: hPTP1B1–285 (the short form with an N‐terminal catalytic domain) and hPTP1B1–400 (the long form with an intrinsically disordered C‐terminal regulatory domain). […] According to Coronel‐Tovar et al., the disordered region of the C‐terminal domain plays a crucial role in modulating PTP1B enzymatic activity.^[ [30] ^] […] Different concentrations of the compounds were evaluated to determine their IC50 values (Table 1 ).
(§2) Recombinant human protein tyrosine phosphatase 1B, consisting of 400 and 285 amino acid residues, was used.^[ [35] ^] […] Aliquots of 0–10 µL of the test compounds (triplicate) were taken and incubated for 15 min at 37 °C with 85 µL of Tris buffer solution (50 mM, pH 6.8) containing PTP1B enzyme and 5 µL of p‐nitrophenyl phosphate substrate (p‐NPP, 10 mM). Absorbance was then measured at a wavelength of 405 nm. The inhibitory activity was determined according to Equation (1). (1) % PTP1B=(A405b/A405c)×100 where % PTP1B: Is the percentage of inhibition. A 405c: Is the corrected absorbance of the blank (A 405initial–A 405final). A 405b: Is the corrected absorbance of the compounds (A 405control–A 405compound).

Another data set has as its system HepG2 cells. In words: Cell viability with crystal violet. The format is cell-based. Conditions: 1 and 25 µM, 24 h. As to the method:
Subsequently, we evaluated the same compounds in a HepG2 insulin‐resistant model.
A 96‐well plate was seeded with 3,000 cells per well and incubated for 24 h. Afterward, the cells were treated with test compounds at various concentrations for 24 h. After incubation, the media was removed, and 100 µL of 1% glutaraldehyde was added for 15 min. Afterward, the liquid was removed, and 50 µL of 0.5% crystal violet (dissolved in 25% methanol) was added for 30 min. The crystal violet staining solution was removed, and the plate was thoroughly washed with tap water. The precipitate was dissolved in a 10% acetic acid solution and mixed for 15 min. The absorbance was then measured at 590 nm using a plate reader (xMark Microplate Spectrophotometer—Bio‐Rad).
Figure S59. Cell viability assessment by crystal violet staining. HepG2 cell viability was evaluated
after treatment with the respective compounds at concentrations of 1 and 25 µM for 24 hours. Bar
graphs represent mean ± SEM.

Details of data set [3]: method as in PMID 37628991. The following applies: cited from earlier work.
A further data set has as its system PTP1B. The following applies: cited from earlier work.
The next data set concerns the target T2, TCPTP (Homo sapiens, UniProt P17706).
T2 sequence (P17706 1-415): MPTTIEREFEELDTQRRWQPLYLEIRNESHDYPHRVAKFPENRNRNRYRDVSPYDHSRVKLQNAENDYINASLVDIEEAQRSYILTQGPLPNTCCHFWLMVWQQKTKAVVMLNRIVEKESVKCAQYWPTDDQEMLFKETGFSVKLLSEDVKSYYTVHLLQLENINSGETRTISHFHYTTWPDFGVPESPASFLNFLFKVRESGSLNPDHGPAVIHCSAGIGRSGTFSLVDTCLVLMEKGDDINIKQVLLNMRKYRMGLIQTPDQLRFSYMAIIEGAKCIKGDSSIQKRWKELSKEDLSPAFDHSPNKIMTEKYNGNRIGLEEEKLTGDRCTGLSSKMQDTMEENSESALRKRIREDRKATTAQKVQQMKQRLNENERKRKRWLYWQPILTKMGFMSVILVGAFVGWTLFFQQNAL
Put plainly: T‐cell protein tyrosine phosphatase (TCPTP) activity assay (p‐NPP). The data set is classed as biochemical. Conditions: for TCPTP inhibition (in words): up to 100 μM; for IC50: ± S.D, assessed up to 100 μM, read-out: TCPTP IC50. As to the method: The effectiveness and safety of protein tyrosine phosphatase (PTP) inhibitors depend on their specificity. PTP1B and TCPTP serve different functions: PTP1B is involved in metabolism and cancer, while TCPTP regulates immune function. Inhibiting TCPTP could impact the immune response, whereas inhibiting PTP1B may benefit metabolic diseases without these side effects.^[ [20] ^, [34] ^, [35] ^] […] These compounds were assessed up to 100 μM (Table 1).
TCPTP enzyme reported by Mendoza et al. was used for this assay. […] Aliquots of 0–10 µL (triplicate) of the newly synthesized compounds, positive control, and solvent were taken. These were incubated with 85 µL of enzyme solution (Tris, 50 mM, pH 6.8, TCPTP) and 5 µL of substrate (p‐NPP, 10 mM) for 15 min at 37 °C.

Another data set deals with T3, hPTP1B1–285 (Homo sapiens, UniProt P18031).
T3 construct: hPTP1B1–285 (the short form with an N‐terminal catalytic domain)
T3 sequence (P18031 1-285): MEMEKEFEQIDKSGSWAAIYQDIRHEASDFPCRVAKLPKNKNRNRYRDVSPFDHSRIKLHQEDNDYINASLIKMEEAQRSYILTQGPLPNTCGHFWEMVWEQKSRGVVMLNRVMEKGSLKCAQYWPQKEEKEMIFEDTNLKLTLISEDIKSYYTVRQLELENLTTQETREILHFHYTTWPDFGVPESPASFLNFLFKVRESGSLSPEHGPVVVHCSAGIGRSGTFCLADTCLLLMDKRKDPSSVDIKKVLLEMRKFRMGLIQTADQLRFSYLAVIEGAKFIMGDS
In words: PTP1B activity assay, short form hPTP1B1–285 (p‐NPP). The format is biochemical. Conditions: ± S.D; p‐NPP substrate, 15 min at 37 °C. As to the method: as §1
To do so, these terpenoids were tested against hPTP1B1–285.
as §2

Data set [4] addresses T1, hPTP1B1–400. In words: Kinetic studies of PTP1B (hPTP1B1–400).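 Further: enzyme kinetics run across a range of substrate and inhibitor levels, control lacking inhibitor, triplicate runs, parameters derived by fitting Michaelis–Menten style equations.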
Method: Kinetic analyses were performed at various substrate and inhibitor concentrations.
The negative control was prepared with the enzyme and substrate in the absence of the inhibitor. Experiments were conducted in triplicate.^[ [30] ^] […] The kinetic parameters of enzyme inhibition, K m and V max, were determined by fitting the data to the Michaelis‐Menten model, Equation (3) (OriginPro 2018 (64‐bit) SR1). (3) y=VmaxX/Km+X´ where V max: is the maximum velocity, X: is the inhibitor concentration, K m: Michaelis constant.
(4) y=Vmax(X)/(Km/1+I/Ki)+X where V max: maximum velocity, X: substrate concentration, I: inhibitor concentration, K m: Michaelis constant, K i : inhibition constant.
Where [5] appears, read: streptozotocin‐induced diabetic rats.
The mark [6] stands for this setting: ± S.D, hPTP1B1–400 with inhibitor.

Usually IC50 stands for the concentration at which inhibition is half-maximal. In the case of `CC1(C(=O)O)CCC2(C)CCC3(C)C(=CC(=O)C4C5(C)Cc6c([nH]c7ccc(C(F)(F)F)cc67)C(C)(C)C5CCC43C)C2C1` (stereo not shown) [FC‐114], the antidiabetic activity entry in data set [1] was “showed antidiabetic activity”. Further, the insulin levels entry in data set [1] (streptozotocin‐induced diabetic rats, compared with glibenclamide) was “increased insulin levels more than glibenclamide”. For the same compound, in data set [1] (setting [5]), the HDL cholesterol result was “without affecting HDL cholesterol” and the total cholesterol levels entry is “significantly reduced total cholesterol levels”. Half-maximal inhibition at hPTP1B1–400 [2] (IC50) required 0.48 ± 0.006 µM. Besides, the HepG2 cell viability result with HepG2 cells is on record as “did not compromise HepG2 cell viability”. Moreover, the HepG2 cell viability entry with HepG2 cells (listed as FC-114) is recorded as “No significant differences”. Further, in data set [3], the “doses at which safe” value is “below 2000 mg kg^−1”. In the data set with PTP1B, the “times better potency against PTP1B than 18β‐GA” value is 25 times and the “type of PTP1B inhibition” value was “noncompetitive inhibitor”. Besides, on TCPTP, the “TCPTP inhibition (in words)” value is reported as “did not inhibit TCPTP” and the IC50 is over 100 µM.
As for `Cc1ccc(-n2ncc3c2C(C)(C)C2CCC4(C)C(C(=O)C=C5C6CC(C)(C(=O)O)CCC6(C)CCC54C)C2(C)C3)cc1` (stereo not shown) [FC‐122], the antidiabetic activity result in data set [1] is “showed antidiabetic activity”. In addition, the 50% inhibitory concentration (IC50) against hPTP1B1–285 is 25.1 ± 0.85 µM; against hPTP1B1–400 [2] it was 1.15 ± 0.04 µM; at TCPTP it was over 100 µM. In addition, on hPTP1B1–400 [2] (beta epimer vs alpha epimer (FC‐114 vs 3c, FC‐122 vs 5c), hPTP1B1–400 IC50), the “fold more potent than the alpha epimer” value is 1.3 fold. The HepG2 cell viability result with HepG2 cells is “did not compromise HepG2 cell viability”; in the data set with HepG2 cells (listed as FC-122) it was “No significant differences”. In addition, in data set [3], the “doses at which safe” value is “below 2000 mg kg^−1”. Further, in the data set with PTP1B, the “times better potency against PTP1B than 18β‐GA” value is reported as 14 times. The “type of PTP1B inhibition” value in the data set with PTP1B is recorded as “uncompetitive inhibitor”. The “TCPTP inhibition (in words)” value on TCPTP is recorded as “did not inhibit TCPTP”.
Usually Ki stands for a measure of affinity in units of concentration, obtained from inhibition or displacement. The low end stands for higher affinity, the high end for lower affinity. As for `Cc1ccc(-n2ncc3c2C(C)(C)C2CCC4(C)C(C(=O)C=C5C6CC(C)(C(=O)O)CCC6(C)CCC54C)C2(C)C3)cc1` (stereo not shown) [Compound 5c], the values for the half-maximal inhibitory concentration (IC50) against hPTP1B1–285, against hPTP1B1–400 [2] and at TCPTP were 31.6 ± 0.88 µM, 1.57 ± 0.04 µM and over 100 µM, respectively. The HepG2 cell viability entry in the data set with HepG2 cells is listed as “No significant differences; also recorded: did not compromise HepG2 cell viability”. Moreover, the Ki on hPTP1B1–400 [4] (K i, ± S.D, hPTP1B1–400, p‐NPP 0.1 to 0.5 mM) was 0.22 µM and 0.224 µM. Further, the Inhibition type result at hPTP1B1–400 [4] (hPTP1B1–400) was “uncompetitive inhibition”. The K m at hPTP1B1–400 [4] (setting [6]) came to 1420 ± 320 µM. This compound came in with a V max at hPTP1B1–400 [4] (setting [6]) of 1.54 ± 0.28 mM/min.
